How the values were obtained:
[1] = xn = mol fraction of the nth substance listed; conditions: 101 kPa, Liquid, Vibrating tube method
[2] = refractive index (Na D-line) (dimensionless); xn = mol fraction of the nth substance listed; conditions: 101 kPa, Liquid, Standard Abbe refractometry

COC(=O)CCCCC(=O)OC [dimethyl 1,6-hexanedioate] + CCC(C)O
Conditions | mass density, [1] [kg/m3] | refractive index, [2]
288.15 K, x1 = 0.1 | 851.006 | 1.40371
288.15 K, x1 = 0.2001 | 886.929 | 1.40787
288.15 K, x1 = 0.3 | 918.373 | 1.41161
288.15 K, x1 = 0.4 | 946.216 | 1.41507
288.15 K, x1 = 0.5003 | 971.377 | 1.41815
288.15 K, x1 = 0.6 | 994.171 | 1.42105
288.15 K, x1 = 0.6999 | 1014.77 | 1.42368
288.15 K, x1 = 0.8005 | 1033.71 | 1.42612
288.15 K, x1 = 0.8999 | 1050.86 | 1.42837
288.15 K, x1 = 1 | 1066.79 | 1.4305
293.15 K, x1 = 0.1 | 846.719 | 1.40153
293.15 K, x1 = 0.2001 | 882.468 | 1.4057
293.15 K, x1 = 0.3 | 913.786 | 1.40945
293.15 K, x1 = 0.4 | 941.538 | 1.4129
293.15 K, x1 = 0.5003 | 966.636 | 1.41602
293.15 K, x1 = 0.6 | 989.387 | 1.41891
293.15 K, x1 = 0.6999 | 1009.96 | 1.42156
293.15 K, x1 = 0.8005 | 1028.88 | 1.42403
293.15 K, x1 = 0.8999 | 1046.01 | 1.42628
293.15 K, x1 = 1 | 1061.93 | 1.42842
298.15 K, x1 = 0.1 | 842.377 | 1.39933
298.15 K, x1 = 0.2001 | 877.96 | 1.40348
298.15 K, x1 = 0.3 | 909.164 | 1.40724
298.15 K, x1 = 0.4 | 936.838 | 1.41071
298.15 K, x1 = 0.5003 | 961.876 | 1.41385
298.15 K, x1 = 0.6 | 984.59 | 1.41676
298.15 K, x1 = 0.6999 | 1005.13 | 1.41943
298.15 K, x1 = 0.8005 | 1024.03 | 1.42191
298.15 K, x1 = 0.8999 | 1041.15 | 1.4242
298.15 K, x1 = 1 | 1057.06 | 1.42636
303.15 K, x1 = 0.1 | 837.975 | 1.39709
303.15 K, x1 = 0.2001 | 873.411 | 1.40124
303.15 K, x1 = 0.3 | 904.511 | 1.405
303.15 K, x1 = 0.4 | 932.113 | 1.40851
303.15 K, x1 = 0.5003 | 957.1 | 1.41165
303.15 K, x1 = 0.6 | 979.781 | 1.4146
303.15 K, x1 = 0.6999 | 1000.3 | 1.4173
303.15 K, x1 = 0.8005 | 1019.19 | 1.41981
303.15 K, x1 = 0.8999 | 1036.29 | 1.42211
303.15 K, x1 = 1 | 1052.18 | 1.42429
308.15 K, x1 = 0.1 | 833.506 | 1.39479
308.15 K, x1 = 0.2001 | 868.81 | 1.39899
308.15 K, x1 = 0.3 | 899.82 | 1.40278
308.15 K, x1 = 0.4 | 927.355 | 1.4063
308.15 K, x1 = 0.5003 | 952.301 | 1.40948
308.15 K, x1 = 0.6 | 974.955 | 1.41244
308.15 K, x1 = 0.6999 | 995.457 | 1.41515
308.15 K, x1 = 0.8005 | 1014.33 | 1.4177
308.15 K, x1 = 0.8999 | 1031.43 | 1.42004
308.15 K, x1 = 1 | 1047.31 | 1.42222
313.15 K, x1 = 0.1 | 828.965 | 1.39245
313.15 K, x1 = 0.2001 | 864.16 | 1.39669
313.15 K, x1 = 0.3 | 895.087 | 1.40049
313.15 K, x1 = 0.4 | 922.569 | 1.40404
313.15 K, x1 = 0.5003 | 947.474 | 1.40726
313.15 K, x1 = 0.6 | 970.109 | 1.41026
313.15 K, x1 = 0.6999 | 990.598 | 1.41301
313.15 K, x1 = 0.8005 | 1009.47 | 1.41557
313.15 K, x1 = 0.8999 | 1026.55 | 1.41795
313.15 K, x1 = 1 | 1042.43 | 1.42017
318.15 K, x1 = 0.1 | 824.35 | 1.39013
318.15 K, x1 = 0.2001 | 859.451 | 1.39438
318.15 K, x1 = 0.3 | 890.312 | 1.39825
318.15 K, x1 = 0.4 | 917.75 | 1.4018
318.15 K, x1 = 0.5003 | 942.626 | 1.40503
318.15 K, x1 = 0.6 | 965.245 | 1.40808
318.15 K, x1 = 0.6999 | 985.726 | 1.41088
318.15 K, x1 = 0.8005 | 1004.59 | 1.41348
318.15 K, x1 = 0.8999 | 1021.67 | 1.41588
318.15 K, x1 = 1 | 1037.54 | 1.41819
323.15 K, x1 = 0.1 | 819.659 | 1.38776
323.15 K, x1 = 0.2001 | 854.686 | 1.39207
323.15 K, x1 = 0.3 | 885.493 | 1.39597
323.15 K, x1 = 0.4 | 912.894 | 1.39955
323.15 K, x1 = 0.5003 | 937.752 | 1.40283
323.15 K, x1 = 0.6 | 960.363 | 1.40592
323.15 K, x1 = 0.6999 | 980.838 | 1.40875
323.15 K, x1 = 0.8005 | 999.701 | 1.41138
323.15 K, x1 = 0.8999 | 1016.78 | 1.41382
323.15 K, x1 = 1 | 1032.64 | 1.41614

COC(=O)CCCCC(=O)OC [dimethyl 1,6-hexanedioate] + CCCCO
Conditions | mass density, [1] [kg/m3] | refractive index, [2]
288.15 K, x1 = 0.0999 | 854.546 | 1.40584
288.15 K, x1 = 0.2004 | 890.617 | 1.40986
288.15 K, x1 = 0.2999 | 921.957 | 1.41343
288.15 K, x1 = 0.4003 | 949.859 | 1.41668
288.15 K, x1 = 0.4999 | 974.548 | 1.41965
288.15 K, x1 = 0.6007 | 996.907 | 1.42221
288.15 K, x1 = 0.6996 | 1016.65 | 1.42454
288.15 K, x1 = 0.7994 | 1034.84 | 1.4267
288.15 K, x1 = 0.8991 | 1051.42 | 1.42867
288.15 K, x1 = 1 | 1066.79 | 1.4305
293.15 K, x1 = 0.0999 | 850.5 | 1.40378
293.15 K, x1 = 0.2004 | 886.373 | 1.40776
293.15 K, x1 = 0.2999 | 917.562 | 1.41135
293.15 K, x1 = 0.4003 | 945.34 | 1.41458
293.15 K, x1 = 0.4999 | 969.9 | 1.41754
293.15 K, x1 = 0.6007 | 992.211 | 1.4201
293.15 K, x1 = 0.6996 | 1011.89 | 1.42243
293.15 K, x1 = 0.7994 | 1030.03 | 1.4246
293.15 K, x1 = 0.8991 | 1046.58 | 1.42658
293.15 K, x1 = 1 | 1061.93 | 1.42842
298.15 K, x1 = 0.0999 | 846.433 | 1.40169
298.15 K, x1 = 0.2004 | 882.112 | 1.40568
298.15 K, x1 = 0.2999 | 913.148 | 1.40925
298.15 K, x1 = 0.4003 | 940.805 | 1.41247
298.15 K, x1 = 0.4999 | 965.3 | 1.41541
298.15 K, x1 = 0.6007 | 987.507 | 1.418
298.15 K, x1 = 0.6996 | 1007.13 | 1.42033
298.15 K, x1 = 0.7994 | 1025.22 | 1.4225
298.15 K, x1 = 0.8991 | 1041.74 | 1.42451
298.15 K, x1 = 1 | 1057.06 | 1.42636
303.15 K, x1 = 0.0999 | 842.341 | 1.39959
303.15 K, x1 = 0.2004 | 877.825 | 1.40356
303.15 K, x1 = 0.2999 | 908.714 | 1.40713
303.15 K, x1 = 0.4003 | 936.253 | 1.41033
303.15 K, x1 = 0.4999 | 960.66 | 1.41329
303.15 K, x1 = 0.6007 | 982.791 | 1.41588
303.15 K, x1 = 0.6996 | 1002.36 | 1.41823
303.15 K, x1 = 0.7994 | 1020.41 | 1.42042
303.15 K, x1 = 0.8991 | 1036.89 | 1.42242
303.15 K, x1 = 1 | 1052.18 | 1.42429
308.15 K, x1 = 0.0999 | 838.219 | 1.39746
308.15 K, x1 = 0.2004 | 873.513 | 1.40144
308.15 K, x1 = 0.2999 | 904.259 | 1.40498
308.15 K, x1 = 0.4003 | 931.684 | 1.4082
308.15 K, x1 = 0.4999 | 955.998 | 1.41109
308.15 K, x1 = 0.6007 | 978.06 | 1.41376
308.15 K, x1 = 0.6996 | 997.573 | 1.41612
308.15 K, x1 = 0.7994 | 1015.59 | 1.41832
308.15 K, x1 = 0.8991 | 1032.04 | 1.42035
308.15 K, x1 = 1 | 1047.31 | 1.42222
313.15 K, x1 = 0.0999 | 834.066 | 1.39533
313.15 K, x1 = 0.2004 | 869.172 | 1.3993
313.15 K, x1 = 0.2999 | 899.775 | 1.40285
313.15 K, x1 = 0.4003 | 927.091 | 1.40603
313.15 K, x1 = 0.4999 | 951.32 | 1.40901
313.15 K, x1 = 0.6007 | 973.316 | 1.41163
313.15 K, x1 = 0.6996 | 992.781 | 1.41402
313.15 K, x1 = 0.7994 | 1010.76 | 1.41623
313.15 K, x1 = 0.8991 | 1027.18 | 1.41828
313.15 K, x1 = 1 | 1042.43 | 1.42017
318.15 K, x1 = 0.0999 | 829.874 | 1.39323
318.15 K, x1 = 0.2004 | 864.799 | 1.39716
318.15 K, x1 = 0.2999 | 895.264 | 1.40072
318.15 K, x1 = 0.4003 | 922.473 | 1.40393
318.15 K, x1 = 0.4999 | 946.622 | 1.40688
318.15 K, x1 = 0.6007 | 968.555 | 1.40952
318.15 K, x1 = 0.6996 | 987.974 | 1.4119
318.15 K, x1 = 0.7994 | 1005.91 | 1.41415
318.15 K, x1 = 0.8991 | 1022.31 | 1.41622
318.15 K, x1 = 1 | 1037.54 | 1.41819
323.15 K, x1 = 0.0999 | 825.64 | 1.39109
323.15 K, x1 = 0.2004 | 860.391 | 1.39505
323.15 K, x1 = 0.2999 | 890.725 | 1.39859
323.15 K, x1 = 0.4003 | 917.832 | 1.40177
323.15 K, x1 = 0.4999 | 941.902 | 1.40473
323.15 K, x1 = 0.6007 | 963.778 | 1.4074
323.15 K, x1 = 0.6996 | 983.155 | 1.40981
323.15 K, x1 = 0.7994 | 1001.06 | 1.41207
323.15 K, x1 = 0.8991 | 1017.44 | 1.41416
323.15 K, x1 = 1 | 1032.64 | 1.41614

Source: the NIST ThermoML archive (doi:10.1016/j.tca.2012.01.013)
